Experimental data from ChEMBL document CHEMBL4387706, “Discovery of Novel Spiroindoline Derivatives as Selective Tankyrase Inhibitors” (J Med Chem, 2019).
Values after ≈ are worked out from the molar mass of the structure shown.

Assays:
[1] = target: T1, Poly [ADP-ribose] polymerase tankyrase-1 (Homo sapiens, UniProt O95271)
T1 sequence (O95271 whole entry): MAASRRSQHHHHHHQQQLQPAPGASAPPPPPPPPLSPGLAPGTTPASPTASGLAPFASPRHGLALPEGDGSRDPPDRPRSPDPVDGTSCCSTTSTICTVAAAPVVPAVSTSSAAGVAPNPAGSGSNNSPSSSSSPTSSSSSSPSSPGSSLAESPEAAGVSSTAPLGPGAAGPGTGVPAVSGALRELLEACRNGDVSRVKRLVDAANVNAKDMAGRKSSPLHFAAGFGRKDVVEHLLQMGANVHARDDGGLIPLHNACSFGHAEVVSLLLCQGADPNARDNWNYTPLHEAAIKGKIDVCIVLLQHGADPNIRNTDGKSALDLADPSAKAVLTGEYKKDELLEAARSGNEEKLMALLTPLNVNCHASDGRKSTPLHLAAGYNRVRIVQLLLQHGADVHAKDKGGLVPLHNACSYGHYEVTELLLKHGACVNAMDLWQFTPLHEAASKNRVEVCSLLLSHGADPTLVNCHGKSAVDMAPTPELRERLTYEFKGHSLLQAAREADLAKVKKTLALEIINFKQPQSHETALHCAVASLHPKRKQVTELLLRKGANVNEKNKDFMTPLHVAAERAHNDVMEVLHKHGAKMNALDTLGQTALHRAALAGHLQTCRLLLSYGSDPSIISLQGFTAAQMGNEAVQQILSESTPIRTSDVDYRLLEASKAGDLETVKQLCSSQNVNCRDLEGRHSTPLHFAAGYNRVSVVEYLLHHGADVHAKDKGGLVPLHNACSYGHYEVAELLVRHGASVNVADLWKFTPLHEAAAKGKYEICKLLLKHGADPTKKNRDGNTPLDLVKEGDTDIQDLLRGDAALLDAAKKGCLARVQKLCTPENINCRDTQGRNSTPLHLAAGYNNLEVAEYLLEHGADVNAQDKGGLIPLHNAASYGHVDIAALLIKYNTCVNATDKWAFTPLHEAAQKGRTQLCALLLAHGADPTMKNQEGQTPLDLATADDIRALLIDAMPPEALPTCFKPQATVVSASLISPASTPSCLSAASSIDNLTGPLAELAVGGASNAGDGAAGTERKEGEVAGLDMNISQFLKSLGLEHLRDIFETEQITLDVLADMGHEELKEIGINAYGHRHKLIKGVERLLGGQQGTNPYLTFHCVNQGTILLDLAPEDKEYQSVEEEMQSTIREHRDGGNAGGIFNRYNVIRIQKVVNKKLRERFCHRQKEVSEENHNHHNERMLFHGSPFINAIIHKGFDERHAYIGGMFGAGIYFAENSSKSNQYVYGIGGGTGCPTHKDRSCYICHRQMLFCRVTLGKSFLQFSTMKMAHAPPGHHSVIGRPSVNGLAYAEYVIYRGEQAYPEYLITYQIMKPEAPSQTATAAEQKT
Description: Inhibition of recombinant human N-terminal TEV cleavage site-fused/FLAG-poly his-tagged TNKS SAM-PARP domain (1024 to 1327 residues) expressed in Escherichia coli assessed as reduction in auto-PARylation preincubated for 10 mins followed by biotinylated-NAD+ addition and measured after 45 mins by ELISA

[2] = target: T2, Poly [ADP-ribose] polymerase tankyrase-2 (Homo sapiens, UniProt Q9H2K2)
T2 sequence (Q9H2K2 whole entry): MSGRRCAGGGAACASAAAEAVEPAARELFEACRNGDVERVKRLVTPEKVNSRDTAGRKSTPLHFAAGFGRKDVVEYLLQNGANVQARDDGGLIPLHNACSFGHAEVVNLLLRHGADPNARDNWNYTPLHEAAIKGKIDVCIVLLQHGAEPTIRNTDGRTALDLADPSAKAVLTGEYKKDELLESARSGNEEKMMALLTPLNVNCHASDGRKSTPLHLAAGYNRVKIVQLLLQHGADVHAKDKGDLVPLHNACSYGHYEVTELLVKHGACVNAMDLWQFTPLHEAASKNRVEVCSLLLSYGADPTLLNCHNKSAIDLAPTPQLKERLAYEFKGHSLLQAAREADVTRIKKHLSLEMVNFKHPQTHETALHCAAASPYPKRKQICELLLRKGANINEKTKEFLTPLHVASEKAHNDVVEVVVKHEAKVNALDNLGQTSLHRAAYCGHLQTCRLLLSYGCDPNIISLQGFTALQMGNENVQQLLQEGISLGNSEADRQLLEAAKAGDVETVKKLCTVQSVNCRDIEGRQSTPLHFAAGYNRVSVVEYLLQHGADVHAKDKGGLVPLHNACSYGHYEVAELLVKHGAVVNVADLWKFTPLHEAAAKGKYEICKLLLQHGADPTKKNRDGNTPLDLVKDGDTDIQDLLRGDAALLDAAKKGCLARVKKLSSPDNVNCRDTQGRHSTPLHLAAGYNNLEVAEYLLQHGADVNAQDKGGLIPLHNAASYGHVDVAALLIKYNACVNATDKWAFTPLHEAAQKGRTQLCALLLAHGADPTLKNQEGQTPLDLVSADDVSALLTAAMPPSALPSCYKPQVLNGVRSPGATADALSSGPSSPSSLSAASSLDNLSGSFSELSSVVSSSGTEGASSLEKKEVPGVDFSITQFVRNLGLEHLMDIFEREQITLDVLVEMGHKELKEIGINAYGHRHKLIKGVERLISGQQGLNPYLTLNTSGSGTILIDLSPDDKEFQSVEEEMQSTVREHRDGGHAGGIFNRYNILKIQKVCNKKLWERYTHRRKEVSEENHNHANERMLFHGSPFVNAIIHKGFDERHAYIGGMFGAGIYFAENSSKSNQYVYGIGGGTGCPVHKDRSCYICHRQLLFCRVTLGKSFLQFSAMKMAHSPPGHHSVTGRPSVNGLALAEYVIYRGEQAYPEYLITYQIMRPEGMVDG
Description: Inhibition of recombinant human N-terminal TEV cleavage site-fused/FLAG-poly his-tagged TNKS2 SAM-PARP domain (613 to 1166 residues) expressed in Escherichia coli assessed as reduction in auto-PARylation preincubated for 10 mins followed by biotinylated-NAD+ addition and measured after 45 mins by ELISA

[3] = target: Poly [ADP-ribose] polymerase 1 (Homo sapiens, UniProt P09874)
Description: Inhibition of recombinant human PARP1 expressed in Escherichia coli assessed as reduction in auto-PARylation using histone as substrate measured after 45 mins in presence of biotinylated-NAD+ by ELISA

Tankyrase 1/2 = target: T3, Tankyrase 1/2 (Homo sapiens, UniProt Q9H2K2+O95271)
T3 sequence (Q9H2K2 whole entry): T2 sequence (Q9H2K2 whole entry)
T3 sequence (O95271 whole entry): T1 sequence (O95271 whole entry)
Description: Inhibition of TNKS/TNKS2 (unknown origin) expressed in human DLD1 cells assessed as reduction in Wnt-signaling measured after 24 hrs by TCF-luciferase reporter gene assay

COLO 320DM [4] = experiment: cells; settings: Homo sapiens, 96 h
Description: Antiproliferative activity against human COLO320DM cells assessed as inhibition of cell growth measured after 4 days by CellTiter-Glo assay

physchem = settings: phosphate buffer, pH 7.4
COLO 320DM [5] = experiment: Antiproliferative activity against human COLO320DM cells assessed inhibition of cell growth measured after 5 days by MTT assay; assay type: functional; settings: 120 h
RKO = experiment: Antiproliferative activity against human RKO cells assessed inhibition of cell growth measured after 5 days by MTT assay; assay type: functional; settings: 120 h
[6] = target: Tankyrase 1/2 (Homo sapiens) (UniProt Q9H2K2+O95271); experiment: Inhibition of TNKS/TNKS2 in human COLO320DM cells assessed as upregulation of AXIN2 expression at 0.1 uM measured after 16 hrs by Western blot analysis relative to G007-LK; assay type: cell-based
[7] = Permeability of the compound by PAMPA; assay type: ADME; settings: read-out: permeability
in vitro [8] = settings: human, liver microsomes
Description: Stability in human liver microsomes assessed as parent compound remaining at 1 uM measured after 30 mins in presence of NADPH by LC-MS/MS analysis

in vitro [9] = settings: mouse, liver microsomes
Description: Stability in mouse liver microsomes assessed as parent compound remaining at 1 uM measured after 30 mins in presence of NADPH by LC-MS/MS analysis

Poly [ADP-ribose] polymerase 1, sequence (P09874 whole entry): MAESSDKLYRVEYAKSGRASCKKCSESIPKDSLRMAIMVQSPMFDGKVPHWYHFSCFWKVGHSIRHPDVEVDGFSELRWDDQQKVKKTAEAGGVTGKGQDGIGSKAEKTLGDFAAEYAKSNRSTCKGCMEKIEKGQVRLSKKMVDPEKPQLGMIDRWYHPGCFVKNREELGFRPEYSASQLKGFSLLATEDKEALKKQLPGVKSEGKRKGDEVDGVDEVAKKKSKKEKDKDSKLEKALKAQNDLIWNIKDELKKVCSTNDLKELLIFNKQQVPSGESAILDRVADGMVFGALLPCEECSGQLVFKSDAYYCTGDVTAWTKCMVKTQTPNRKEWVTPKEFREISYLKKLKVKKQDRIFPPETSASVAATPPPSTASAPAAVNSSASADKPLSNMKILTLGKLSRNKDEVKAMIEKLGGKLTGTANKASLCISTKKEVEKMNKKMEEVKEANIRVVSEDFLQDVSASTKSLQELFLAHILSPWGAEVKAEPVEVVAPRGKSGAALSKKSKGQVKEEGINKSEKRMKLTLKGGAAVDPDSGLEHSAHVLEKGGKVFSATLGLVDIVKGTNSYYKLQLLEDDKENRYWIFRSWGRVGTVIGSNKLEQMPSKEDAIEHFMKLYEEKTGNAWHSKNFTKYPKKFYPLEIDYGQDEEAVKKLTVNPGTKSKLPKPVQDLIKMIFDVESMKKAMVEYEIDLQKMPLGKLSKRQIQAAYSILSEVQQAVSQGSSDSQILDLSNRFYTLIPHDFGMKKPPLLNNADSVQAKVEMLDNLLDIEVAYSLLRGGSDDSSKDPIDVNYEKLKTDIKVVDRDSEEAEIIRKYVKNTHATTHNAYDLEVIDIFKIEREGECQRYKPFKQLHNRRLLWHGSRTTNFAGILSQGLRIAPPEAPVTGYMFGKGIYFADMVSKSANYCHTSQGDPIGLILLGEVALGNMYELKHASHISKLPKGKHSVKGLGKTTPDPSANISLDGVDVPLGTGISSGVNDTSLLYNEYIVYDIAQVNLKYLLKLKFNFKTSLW

| Compound | IC50 [1] | IC50 [2] | IC50 [3] | IC50 (Tankyrase 1/2) | GI50 (COLO 320DM [4]) | solubility at 1 h, 200 µM (physchem) | GI50 (COLO 320DM [5]) | GI50 (RKO) | fold change (FC) [6] | Papp [7] | remaining at 0.5 h, 1 µM (in vitro [8]) | remaining at 0.5 h, 1 µM (in vitro [9]) |
| --- | --- | --- | --- | --- | --- | --- | --- | --- | --- | --- | --- | --- |
| O=c1[nH]c(N2CCC3(CC2)NCc2ccccc23)nc2c1CCCC2 | 118 nM | 29.3 nM | > 20000 nM | 1605 nM | 22400 nM | 67 µg/mL (≈ 199 µM) | – | – | – | – | – | – |
| O=c1[nH]c(N2CCC3(CC2)CN(CCO)c2cc(Cl)cc(Cl)c23)nc2c1CCCC2 | 18.2 nM | 16.4 nM | > 20000 nM | 119 nM | 2900 nM | 5.2 µg/mL (≈ 11.6 µM) | 4650 nM | 40 nM | 4.03 | – | – | – |
| COc1ccc(N2CCN(c3nc4c(c(=O)[nH]3)COCC4)CC2)cc1 | 220 nM | 148 nM | > 20000 nM | 2246 nM | > 20000 nM | 6 µg/mL (≈ 17.5 µM) | – | – | – | – | – | – |
| O=C1N(CCO)c2cccc(F)c2C12CCN(c1nc3c(c(=O)[nH]1)CCCC3)CC2 | 6.8 nM | 8.2 nM | > 20000 nM | 36.5 nM | 1800 nM | 80.1 µg/mL (≈ 194 µM) | 190 nM | 2030 nM | 4.1 | 3.6 ×10⁻⁶ cm/s | – | – |
| O=c1[nH]c(N2CCC3(CC2)CN(CCO)c2ccccc23)nc2c1CCCC2 | 49.3 nM | 26.9 nM | > 20000 nM | 362 nM | 3900 nM | > 76.1 µg/mL | 1770 nM | 220 nM | 0.98 | 17.4 ×10⁻⁶ cm/s | – | – |
| COc1ccc(N2CCN(c3nc4c(c(=O)[nH]3)CCCC4)CC2)cc1 | 35 nM | 45.5 nM | > 20000 nM | 1294 nM | > 20000 nM | 4.6 µg/mL (≈ 13.5 µM) | – | – | – | – | – | – |
| COc1ccccc1C1=CCN(c2nc3c(c(=O)[nH]2)CCCC3)CC1 | 35 nM | 49.7 nM | > 20000 nM | 1161 nM | 6300 nM | 14.2 µg/mL (≈ 42.1 µM) | – | – | – | – | 99.3% | 91.7% |
| O=c1[nH]c(N2CCC3(CC2)COc2ccccc23)nc2c1CCCC2 | 43.4 nM | 14.6 nM | > 20000 nM | 608 nM | 10800 nM | 0.67 µg/mL (≈ 1.99 µM) | – | – | – | – | 64.3% | 0.1% |
| O=c1[nH]c(N2CCC3(CC2)CN(CCO)c2cccc(F)c23)nc2c1CCCC2 | 9.2 nM | 11.8 nM | > 20000 nM | 83.9 nM | 1400 nM | 74.6 µg/mL (≈ 187 µM) | 260 nM | 90 nM | 3.63 | 7.6 ×10⁻⁶ cm/s | – | – |
| COc1ccc(N2CCN(c3nc4c(c(=O)[nH]3)CC(F)(F)CC4)CC2)cc1 | 79.6 nM | 36.4 nM | > 20000 nM | 1971 nM | > 20000 nM | 1.1 µg/mL (≈ 2.92 µM) | – | – | – | – | – | – |
